Laboratory results as given in patent publication US10005768B2, “Carboxamide derivatives and use thereof” (Purdue Pharma L.P., priority 2013, dated 2018).

Each compound was assayed against human Nav1.7 (Homo sapiens (Human), UniProt Q15858) (assay: FLIPR sodium dye assay (CoroNa Green AM Na+ dye, primary fluorescence assay)). Conditions: recombinant Nav1.7/HEK293 cells.
Format: cell-based
Method: In vitro assays were performed in a recombinant cell line expressing cDNA encoding the alpha subunit (Nav1.7, SCN9a, PN1, NE) of human Nav1.7 (Accession No. NM_002977). The cell line was provided by investigators at Yale University (Cummins et al, J. Neurosci. 18(23): 9607-9619 (1998)). For dominant selection of the Nav1.7-expressing clones, the expression plasmid co-expressed the neomycin resistance gene. The cell line was constructed in the human embryonic kidney cell line, HEK293, under the influence of the CMV […] promoter, and stable clones were selected using limiting dilution cloning and antibiotic selection using the neomycin analogue, G418. Recombinant beta and gamma subunits were not introduced into this cell line. Additional cell lines expressing recombinant Nav1.7 cloned from other species can also be used, alone or in combination with various beta subunits, gamma subunits or chaperones.
Unless otherwise noted, cell culture reagents were purchased from Mediatech of Herndon, Va. The recombinant Nav1.7/HEK293 cells were routinely cultured in growth medium consisting of Dulbecco's […] essential medium containing 10% fetal bovine serum (FBS, Hyclone, Thermo Fisher Scientific, Logan, Utah), 100 U/mL penicillin, 100 μg/mL streptomycin, 2-4 mM L-glutamine, and […] G418. For natural, non-recombinant cell lines, the selective antibiotic was omitted, and additional media formulations can be applied as needed.
The final buffer consisted of 20 mM Hepes, pH 7.3, 1.261 mM CaCl2, 0.493 mM MgCl2, 0.407 mM Mg(SO)4, 5.33 mM KCl, 0.441 mM KH2PO4, 137 mM NaCl, 0.336 mM Na2HPO4 and […] D-glucose (Hanks et al., Proc. Soc. Exp. Biol. Med. 71:196 (1949)), and the simple formulation was typically the basic buffer throughout the assay (i.e., all wash and addition steps).
The fluorescence indicator used in the primary fluorescence assay was the cell permeant version of CoroNa™ Green (Invitrogen, Molecular Probes, Eugene, Oreg.), a dye that emits light in the fluorescence range (Harootunian et al., J. Biol. Chem. 264(32):19458-19467 (1989)). The intensity of this emission, but not the wavelength range, is increased when the dye is exposed to Na^+ ions, which it can bind with partial selectivity. Cells expressing Nav1.7 or other sodium channels were loaded with the CoroNa™ Green dye immediately in advance of the fluorescence assay, and then, after agonist stimulation, the mobilization of Na^+ ions was detected as the Na^+ ions flowed from the extracellular fluid into the cytoplasm through the activated sodium channel pores. The dye was stored in the dark as a lyophilized powder, and then an aliquot was dissolved immediately before the cell loading procedure, according to the instructions of the manufacturer, to a stock concentration of 10 mM in DMSO. It was then diluted in the assay buffer to a 4× concentrated working solution, so that the final concentration of dye in the cell loading buffer was 5 μM.
In the fluorescence assays, two agonists were used in combination, namely 1) veratridine; and 2) the venom from the yellow scorpion, Leiurus quinquestriatus hebraeus. Veratridine is an alkaloid small molecule that facilitates the capture of channel openings by inhibiting inactivation, and the scorpion venom is a natural preparation that includes peptide toxins selective for different subsets of voltage-gated sodium channels. These scorpion toxins inhibit the fast inactivation of their cognate target channels. Stock solutions of the agonists were prepared to 40 mM in DMSO (veratridine) and 1 mg/mL in dH2O (scorpion venom), and then diluted to make a 4× or 2× stock (depending on the particular assay) in assay buffer, the final concentration being 100 μM (veratridine) and 10 μg/mL (scorpion venom). Both of the agonists were purchased from Sigma Aldrich, St. Louis, Mo.
Test compounds were dissolved in DMSO to yield 10 mM stock solutions. […]

Sequence of human Nav1.7 (Q15858 other isoform, or with tags, fused parts or gaps): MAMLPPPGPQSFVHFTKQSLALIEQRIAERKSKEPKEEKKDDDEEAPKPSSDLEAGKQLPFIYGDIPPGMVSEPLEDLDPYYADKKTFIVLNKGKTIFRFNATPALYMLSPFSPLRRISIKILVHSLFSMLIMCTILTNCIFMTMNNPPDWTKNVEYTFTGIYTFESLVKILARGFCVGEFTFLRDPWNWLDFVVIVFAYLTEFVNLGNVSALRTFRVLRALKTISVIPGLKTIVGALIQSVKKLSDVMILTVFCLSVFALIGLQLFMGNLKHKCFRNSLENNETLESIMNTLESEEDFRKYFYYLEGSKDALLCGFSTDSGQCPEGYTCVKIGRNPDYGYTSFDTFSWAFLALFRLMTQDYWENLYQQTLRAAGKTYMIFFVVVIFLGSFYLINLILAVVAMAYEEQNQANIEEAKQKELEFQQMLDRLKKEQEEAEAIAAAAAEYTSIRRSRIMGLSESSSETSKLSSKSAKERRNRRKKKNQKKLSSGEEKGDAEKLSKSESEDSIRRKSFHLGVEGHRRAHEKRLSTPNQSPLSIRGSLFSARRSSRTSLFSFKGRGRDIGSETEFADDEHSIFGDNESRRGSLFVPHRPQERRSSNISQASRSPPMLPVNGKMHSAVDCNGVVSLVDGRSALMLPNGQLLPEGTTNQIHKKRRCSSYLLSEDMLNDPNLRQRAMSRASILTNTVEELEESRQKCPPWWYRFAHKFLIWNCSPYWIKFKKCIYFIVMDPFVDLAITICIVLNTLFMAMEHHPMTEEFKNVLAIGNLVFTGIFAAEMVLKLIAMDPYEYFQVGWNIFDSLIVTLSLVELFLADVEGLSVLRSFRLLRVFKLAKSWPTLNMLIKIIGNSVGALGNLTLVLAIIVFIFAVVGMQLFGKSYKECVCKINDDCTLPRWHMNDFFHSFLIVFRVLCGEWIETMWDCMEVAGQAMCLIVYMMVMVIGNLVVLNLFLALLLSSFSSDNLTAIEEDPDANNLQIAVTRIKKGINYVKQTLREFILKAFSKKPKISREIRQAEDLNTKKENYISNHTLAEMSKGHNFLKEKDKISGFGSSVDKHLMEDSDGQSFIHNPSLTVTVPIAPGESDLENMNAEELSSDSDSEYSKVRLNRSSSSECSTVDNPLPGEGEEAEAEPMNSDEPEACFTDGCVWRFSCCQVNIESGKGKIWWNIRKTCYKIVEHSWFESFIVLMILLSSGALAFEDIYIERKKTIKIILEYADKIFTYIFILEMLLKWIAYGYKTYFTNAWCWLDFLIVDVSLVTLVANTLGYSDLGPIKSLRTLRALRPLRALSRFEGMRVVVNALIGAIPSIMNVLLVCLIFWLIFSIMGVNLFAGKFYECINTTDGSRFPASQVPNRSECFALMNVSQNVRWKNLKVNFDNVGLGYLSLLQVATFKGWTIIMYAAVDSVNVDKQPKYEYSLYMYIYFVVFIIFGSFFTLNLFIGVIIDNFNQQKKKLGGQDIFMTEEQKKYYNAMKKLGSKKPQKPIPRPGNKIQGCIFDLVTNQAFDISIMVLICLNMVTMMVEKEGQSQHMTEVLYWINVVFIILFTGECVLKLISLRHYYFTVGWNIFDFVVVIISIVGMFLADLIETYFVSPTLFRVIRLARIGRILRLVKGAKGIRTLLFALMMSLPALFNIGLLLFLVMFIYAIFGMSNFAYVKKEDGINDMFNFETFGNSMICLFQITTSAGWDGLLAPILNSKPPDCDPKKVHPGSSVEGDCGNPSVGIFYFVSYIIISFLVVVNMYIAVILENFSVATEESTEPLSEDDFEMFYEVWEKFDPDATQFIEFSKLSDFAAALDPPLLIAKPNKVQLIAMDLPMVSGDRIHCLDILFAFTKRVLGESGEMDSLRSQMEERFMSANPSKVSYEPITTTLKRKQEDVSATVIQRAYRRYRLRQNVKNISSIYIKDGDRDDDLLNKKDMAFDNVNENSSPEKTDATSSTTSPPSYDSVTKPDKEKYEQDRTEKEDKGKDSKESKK

Row | Compound | IC50
1 | N#Cc1ccc(Oc2ccc(-c3cccc(C(N)=O)n3)cc2)c(-c2ccncc2)c1 [compound 15, 6-(4-(4-cyano-2-(pyridin-4-yl)phenoxy)phenyl)picolinamide] | 0.147 ± 0.016 µM
2 | N#Cc1ccc(Oc2ccc(-c3cccc(C(N)=O)n3)cc2)c(-c2cccnc2)c1 [compound 16, 6-(4-(4-cyano-2-(pyridin-3-yl)phenoxy)phenyl)picolinamide] | 0.104 ± 0.02 µM
3 | Cn1cccc1-c1cc(C#N)ccc1Oc1ccc(-c2cccc(C(N)=O)n2)cc1 [compound 17, 6-(4-(4-cyano-2-(1-methyl-1H-pyrrol-2-yl)phenoxy)phenyl)-picolinamide] | 0.067 ± 0.019 µM
4 | N#Cc1ccc(Oc2ccc(-c3cccc(C(N)=O)n3)cc2)c(-c2ccc(N)cc2)c1 [compound 18, 6-(4-((4′-amino-5-cyano-[1,1′-biphenyl]-2-yl)oxy)phenyl)-picolinamide] | 0.426 ± 0.084 µM
5 | N#Cc1ccc(Oc2ccc(-c3cccc(C(N)=O)n3)cc2)c(-c2ccsc2)c1 [compound 19, 6-(4-(4-cyano-2-(thiophen-3-yl)phenoxy)phenyl)picolinamide] | 0.337 ± 0.006 µM
6 | COc1ccc(-c2cc(C#N)ccc2Oc2ccc(-c3cccc(C(N)=O)n3)cc2)cn1 [compound 20, 6-(4-(4-cyano-2-(6-methoxypyridin-3-yl)phenoxy)phenyl)picolinamide] | 0.124 ± 0.016 µM
7 | Cn1cc(-c2cc(C#N)ccc2Oc2ccc(-c3cccc(C(N)=O)n3)cc2)cn1 [compound 21, 6-(4-(4-cyano-2-(1-methyl-1H-pyrazol-4-yl)phenoxy)phenyl)-picolinamide] | 0.564 ± 0.035 µM
8 | Cn1nccc1-c1cc(C#N)ccc1Oc1ccc(-c2cccc(C(N)=O)n2)cc1 [compound 22, 6-(4-(4-cyano-2-(1-methyl-1H-pyrazol-5-yl)phenoxy)phenyl) picolinamide] | 0.285 ± 0.009 µM

Other lines, results leading:

Row | IC50 | Compound
9 | > 20 µM | N#Cc1ccc(Oc2ccc(-c3cccc(C(N)=O)n3)cc2)c(-c2ccc(O)nc2)c1 [compound 23, 6-(4-(4-cyano-2-(6-hydroxypyridin-3-yl)phenoxy)phenyl)picolinamide]
10 | 0.152 ± 0.031 µM | COc1ncccc1-c1cc(C#N)ccc1Oc1ccc(-c2cccc(C(N)=O)n2)cc1 [compound 24, 6-(4-(4-cyano-2-(2-methoxypyridin-3-yl)phenoxy)phenyl)picolinamide]
11 | 0.054 ± 0.005 µM | N#Cc1ccc(Oc2ccc(-c3cccc(C(N)=O)n3)cc2)cc1-c1ccncc1 [compound 26, 6-(4-(4-cyano-3-(pyridin-4-yl)phenoxy)phenyl)picolinamide]
12 | 0.549 ± 0.085 µM | N#Cc1ccc(Oc2ccc(-c3cccc(C(N)=O)n3)cc2)cc1-c1cccnc1 [compound 27, 6-(4-(4-cyano-3-(pyridin-3-yl)phenoxy)phenyl)picolinamide]
13 | 0.101 ± 0.021 µM | NC(=O)c1cccc(-c2ccc(Oc3ccc(C(F)(F)F)cc3-c3ccncc3)cc2)n1 [compound 28, 6-(4-(2-(pyridin-4-yl)-4-(trifluoromethyl)phenoxy)phenyl) picolinamide]
14 | 0.117 ± 0.036 µM | NC(=O)c1cccc(-c2ccc(Oc3ccc(C(F)(F)F)cc3-c3cccnc3)cc2)n1 [compound 29, 6-(4-(2-(pyridin-3-yl)-4-(trifluoromethyl)phenoxy)phenyl) picolinamide]
15 | 0.049 ± 0.003 µM | NC(=O)c1cccc(-c2ccc(Oc3ccc(C(F)(F)F)cc3CN3CCCC3)cc2)n1 [compound 30, 6-(4-(2-(pyrrolidin-1-ylmethyl)-4-(trifluoromethyl)phenoxy)phenyl) picolinamide]
16 | 2.14 ± 0.432 µM | CN(C)CCNCc1cc(C(F)(F)F)ccc1Oc1ccc(-c2cccc(C(N)=O)n2)cc1 [compound 31, 6-(4-(2-(((2-(dimethylamino)ethyl)amino)methyl)-4-(trifluoromethyl)phenoxy)phenyl) picolinamide]
17 | 3.05 ± 0.942 µM | NC(=O)c1cccc(-c2ccc(Oc3ccc(C(F)(F)F)cc3CNCCc3ccc(S(N)(=O)=O)cc3)cc2)n1 [compound 32, 6-(4-(2-(((4-sulfamoylphenethyl)-amino)methyl)-4-(trifluoro-methyl)phenoxy)phenyl)picolin-amide]
